Reference: patent US11377469B2, “CD73 inhibitors” (ORIC Pharmaceuticals, Inc., priority 2017, dated 2022)

target: CD73 (Homo sapiens (Human), UniProt P21589); assay: Biochemical Assay (CD73 inhibition, AMP hydrolysis, Malachite Green readout); details: CD73 0.3208 nM, AMP 15 μM, Tris-HCl pH 7.4, Malachite Green absorbance
Method: Example A1: Biochemical Assay
Assay Reaction Conditions
• Assay Volume: 70 μl • Reaction Volume: 50 μl • CD73: 0.3208 nM • AMP: 15 μM • Assay Buffer: 2 5 mM Tris-HCL, pH 7.4, 0.01% Brij-35, 0.01% BSA, 5 mM MgCl2 Assay Procedure:
Made dose titration of testing compounds in assay buffer, 10 points ½ log titrations in duplicates starting at 100 μM.
Added 25 μl of CD73 to each well for a final concentration of 320 pM.
Incubated at RT for 15 min.
Added 25 μl of AMP to each well for a final concentration of 15 μM.
Incubated at RT for 10 min.
Added 10 μl of Malachite Green Reagent A, incubate at RT for 10 min.
Added 10 μl of Malachite Green Reagent B, incubate at RT for 45 min. […]
The ability of the compounds disclosed herein to inhibit CD73 activity was quantified and the respective IC50 values were determined. Table 1 provides the biochemical IC50 values of compounds disclosed herein.

CD73, sequence (P21589 27-574): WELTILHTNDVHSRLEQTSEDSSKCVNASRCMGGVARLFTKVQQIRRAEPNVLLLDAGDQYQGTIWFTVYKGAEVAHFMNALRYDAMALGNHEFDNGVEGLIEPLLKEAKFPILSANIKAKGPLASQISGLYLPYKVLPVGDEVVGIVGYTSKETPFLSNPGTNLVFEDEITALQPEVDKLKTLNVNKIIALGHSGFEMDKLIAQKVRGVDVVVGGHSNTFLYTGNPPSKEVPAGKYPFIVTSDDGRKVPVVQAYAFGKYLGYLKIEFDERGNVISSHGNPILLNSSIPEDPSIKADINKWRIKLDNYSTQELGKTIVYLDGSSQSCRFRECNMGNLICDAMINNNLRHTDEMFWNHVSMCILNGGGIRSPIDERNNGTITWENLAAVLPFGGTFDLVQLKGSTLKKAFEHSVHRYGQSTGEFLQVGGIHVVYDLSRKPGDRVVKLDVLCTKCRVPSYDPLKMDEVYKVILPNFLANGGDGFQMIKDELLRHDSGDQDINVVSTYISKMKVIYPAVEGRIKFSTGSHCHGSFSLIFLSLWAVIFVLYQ

IC50 | Compound
> 1000 nM | CN(c1nc(Cl)nc2c1cnn2[C@@H]1O[C@H](CCP(=O)(O)O)[C@@H](O)[C@H]1O)[C@H]1CCc2ccccc21 [Example 4, (2-((2R,3S,4R,5R)-5-(6-Chloro-4-(((S)-2,3-dihydro-1H-inden-1-yl)(methyl)amino)-1H-pyrazolo[3,4-d]pyrimidin-1-yl)-3,4-dihydroxytetrahydrofuran-2-yl)ethyl)phosphonic acid]
> 1000 nM | CN(Cc1ccccc1)c1nc(Cl)nc2c1cnn2[C@H]1O[C@H](COCCP(=O)(O)O)[C@@H](O)[C@H]1O [Example 6, (2-(((2R,3S,4R,5S)-5-(4-(Benzyl(methyl)amino)-6-chloro-1H-pyrazolo[3,4-d]pyrimidin-1-yl)-3,4-dihydroxytetrahydrofuran-2-yl)methoxy)ethyl)phosphonic acid]
≤ 500 nM | CN(Cc1ccccc1)c1nc(Cl)nc2c1cnn2[C@@H]1O[C@H](COCP(=O)(O)O)[C@@H](O)[C@H]1O [Example 7, ((((2R,3S,4R,5R)-5-(4-(Benzyl(methyl)amino)-6-chloro-1H-pyrazolo[3,4-d]pyrimidin-1-yl)-3,4-dihydroxytetrahydrofuran-2-yl)methoxy)methyl)phosphonic acid]
≤ 500 nM | CN(C[C@H]1O[C@@H](n2ncc3c(NCc4ccccc4Cl)nc(Cl)nc32)[C@H](O)[C@@H]1O)C(=O)CP(=O)(O)O [Example 9, (2-((((2R,3S,4R,5R)-5-(6-chloro-4-((2-chlorobenzyl)amino)-1H-pyrazolo[3,4-d]pyrimidin-1-yl)-3,4-dihydroxytetrahydrofuran-2-yl)methyl)(methyl)amino)-2-oxoethyl)phosphonic acid]
≤ 500 nM | O=P(O)(O)CS(=O)(=O)C[C@H]1O[C@@H](n2ncc3c(NCc4ccccc4Cl)nc(Cl)nc32)[C@H](O)[C@@H]1O [Example 14, (((((2S,3S,4R,5R)-5-(6-Chloro-4-((2-chlorobenzyl)amino)-1H-pyrazolo[3,4-d]pyrimidin-1-yl)-3,4-dihydroxytetrahydrofuran-2-yl)methyl)sulfonyl)methyl)phosphonic acid]
≤ 500 nM | O=P(O)(O)COC[C@H]1O[C@@H](n2nnc3c(NCC4CC4)nc(Cl)nc32)[C@H](O)[C@@H]1O [Example 16, ((((2R,3S,4R,5R)-5-(5-Chloro-7-((cyclopropylmethyl)amino)-3H-[1,2,3]triazolo[4,5-d]pyrimidin-3-yl)-3,4-dihydroxytetrahydrofuran-2-yl)methoxy)methyl)phosphonic acid]
≤ 500 nM | N#Cc1nc(NCc2cccc(Cl)c2)c2cnn([C@@H]3O[C@H](COCP(=O)(O)O)[C@@H](O)[C@H]3O)c2n1 [Example 18, ((((2R,3S,4R,5R)-5-(4-((3-Chlorobenzyl)amino)-6-cyano-1H-pyrazolo[3,4-d]pyrimidin-1-yl)-3,4-dihydroxytetrahydrofuran-2-yl)methoxy)methyl)phosphonic acid]
500 to 1000 nM | C[C@@]1(O)[C@@H](COCP(=O)(O)O)O[C@@H](n2ncc3c(NCc4ccccc4Cl)nc(Cl)nc32)[C@@H]1O [Example 19, ((((2R,3S,4R,5R)-5-(6-Chloro-4-((2-chlorobenzyl)amino)-1H-pyrazolo[3,4-d]pyrimidin-1-yl)-3,4-dihydroxy-3-methyltetrahydrofuran-2-yl)methoxy)methyl)phosphonic acid]
≤ 500 nM | O=P(O)(O)COC[C@H]1O[C@@H](n2ncc3c(N[C@H]4CCc5ccccc54)nc(Cl)nc32)[C@H](O)[C@@H]1O [Example 25, ((((2R,3S,4R,5R)-5-(6-chloro-4-(((S)-2,3-dihydro-1H-inden-1-yl)amino)-1H-pyrazolo[3,4-d]pyrimidin-1-yl)-3,4-dihydroxytetrahydrofuran-2-yl)methoxy)methyl)phosphonic acid]
500 to 1000 nM | CN(c1nc(Cl)nc2c1nnn2[C@@H]1O[C@H](COCP(=O)(O)O)[C@@H](O)[C@H]1O)[C@H]1CCc2ccccc21 [Example 26, ((((2R,3S,4R,5R)-5-(5-chloro-7-(((S)-2,3-dihydro-1H-inden-1-yl)(methyl)amino)-3H-[1,2,3]triazolo[4,5-d]pyrimidin-3-yl)-3,4-dihydroxytetrahydrofuran-2-yl)methoxy)methyl)phosphonic acid]

More lines, now with the values behind:

Compound | IC50
O=C(CP(=O)(O)O)OC[C@H]1O[C@@H](n2ncc3c(NCc4ccccc4Cl)nc(Cl)nc32)[C@H](O)[C@@H]1O [Example 1, (2-(((2R,3S,4R,5R)-5-(6-Chloro-4-((2-chlorobenzyl)amino)-1H-pyrazolo[3,4-d]pyrimidin-1-yl)-3,4-dihydroxytetrahydrofuran-2-yl)methoxy)-2-oxoethyl)phosphonic acid] | ≤ 500 nM
O=C(CP(=O)(O)O)NC[C@H]1O[C@@H](n2ncc3c(NCc4ccccc4Cl)nc(Cl)nc32)[C@H](O)[C@@H]1O [Example 2, (2-((((2R,3S,4R,5R)-5-(6-Chloro-4-((2-chlorobenzyl)amino)-1H-pyrazolo[3,4-d]pyrimidin-1-yl)-3,4-dihydroxytetrahydrofuran-2-yl)methyl)amino)-2-oxoethyl)phosphonic acid] | > 1000 nM
O=P(O)(O)CS(=O)(=O)NC[C@H]1O[C@@H](n2ncc3c(NCc4ccccc4Cl)nc(Cl)nc32)[C@H](O)[C@@H]1O [Example 3, ((N-(((2R,3S,4R,5R)-5-(6-Chloro-4-((2-chlorobenzyl)amino)-1H-pyrazolo[3,4-d]pyrimidin-1-yl)-3,4-dihydroxytetrahydrofuran-2-yl)methyl)sulfamoyl)methyl)phosphonic acid] | ≤ 500 nM
CN(Cc1ccccc1)c1nc(Cl)nc2c1cnn2[C@@H]1O[C@H](COCCP(=O)(O)O)[C@@H](O)[C@H]1O [Example 5, (2-(((2R,3S,4R,5R)-5-(4-(Benzyl(methyl)amino)-6-chloro-1H-pyrazolo[3,4-d]pyrimidin-1-yl)-3,4-dihydroxytetrahydrofuran-2-yl)methoxy)ethyl)phosphonic acid] | > 1000 nM
CN(c1nc(Cl)nc2c1cnn2[C@@H]1O[C@H](COC(=O)CP(=O)(O)O)[C@@H](O)[C@H]1O)[C@H]1CCc2ccccc21 [Example 8, (2-(((2R,3S,4R,5R)-5-(6-Chloro-4-(((S)-2,3-dihydro-1H-inden-1-yl)(methyl)amino)-1H-pyrazolo[3,4-d]pyrimidin-1-yl)-3,4-dihydroxytetrahydrofuran-2-yl)methoxy)-2-oxoethyl)phosphonic acid] | 500 to 1000 nM
O=P(O)(O)COC[C@H]1O[C@@H](n2ncc3c(NCc4ccccc4Cl)nc(Cl)nc32)[C@H](O)[C@@H]1O [Example 10, ((((2R,3S,4R,5R)-5-(6-chloro-4-((2-chlorobenzyl)amino)-1H-pyrazolo[3,4-d]pyrimidin-1-yl)-3,4-dihydroxytetrahydrofuran-2-yl)methoxy)methyl)phosphonic acid] | ≤ 500 nM
CN(c1nc(Cl)nc2c1nnn2[C@@H]1O[C@H](COC(=O)CP(=O)(O)O)[C@@H](O)[C@H]1O)[C@H]1CCc2ccccc21 [Example 11, (2-(((2R,3S,4R,5R)-5-(5-chloro-7-(((S)-2,3-dihydro-1H-inden-1-yl)(methyl)amino)-3H-[1,2,3]triazolo[4,5-d]pyrimidin-3-yl)-3,4-dihydroxytetrahydrofuran-2-yl)methoxy)-2-oxoethyl)phosphonic acid] | > 1000 nM
O=P(O)(O)COC[C@H]1O[C@@H](n2nnc3c(N[C@H]4CCc5ccccc54)nc(Cl)nc32)[C@H](O)[C@@H]1O [Example 12, ((((2R,3S,4R,5R)-5-(5-chloro-7-(((S)-2,3-dihydro-1H-inden-1-yl)amino)-3H-[1,2,3]triazolo[4,5-d]pyrimidin-3-yl)-3,4-dihydroxytetrahydrofuran-2-yl)methoxy)methyl)phosphonic acid] | ≤ 500 nM
O=P(O)(O)CSC[C@H]1O[C@@H](n2ncc3c(NCc4ccccc4Cl)nc(Cl)nc32)[C@H](O)[C@@H]1O [Example 13, (((((2S,3S,4R,5R)-5-(6-Chloro-4-((2-chlorobenzyl)amino)-1H-pyrazolo[3,4-d]pyrimidin-1-yl)-3,4-dihydroxytetrahydrofuran-2-yl)methyl)thio)methyl)phosphonic acid] | ≤ 500 nM
O=P(O)(O)COC[C@H]1O[C@@H](n2ccc3c(NCC4CC4)nc(Cl)nc32)[C@H](O)[C@@H]1O [Example 15, ((((2R,3S,4R,5R)-5-(2-Chloro-4-((cyclopropylmethyl)amino)-7H-pyrrolo[2,3-d]pyrimidin-7-yl)-3,4-dihydroxytetrahydrofuran-2-yl)methoxy)methyl)phosphonic acid] | ≤ 500 nM
O=P(O)(O)COC[C@H]1O[C@@H](n2ncc3c(NCc4ccccc4Cl)nc(CO)nc32)[C@H](O)[C@@H]1O [Example 17, ((((2R,3S,4R,5R)-5-(4-((2-Chlorobenzyl)amino)-6-(hydroxymethyl)-1H-pyrazolo[3,4-d]pyrimidin-1-yl)-3,4-dihydroxytetrahydrofuran-2-yl)methoxy)methyl)phosphonic acid] | ≤ 500 nM
CC(C)CN(C[C@H]1O[C@@H](n2ncc3c(NCc4ccccc4Cl)nc(Cl)nc32)[C@H](O)[C@@H]1O)C(=O)CP(=O)(O)O [Example 20, (2-((((2R,3S,4R,5R)-5-(6-Chloro-4-((2-chlorobenzyl)amino)-1H-pyrazolo[3,4-d]pyrimidin-1-yl)-3,4-dihydroxytetrahydrofuran-2-yl)methyl)(isobutyl)amino)-2-oxoethyl)phosphonic acid] | > 1000 nM
O=P(O)(O)COC[C@H]1O[C@@H](n2ncc3c(NCc4cccc(Cl)c4)nc(Cl)nc32)[C@H](O)[C@@H]1O [Example 27, ((((2R,3S,4R,5R)-5-(6-chloro-4-((3-chlorobenzyl)amino)-1H-pyrazolo[3,4-d]pyrimidin-1-yl)-3,4-dihydroxytetrahydrofuran-2-yl)methoxy)methyl)phosphonic acid] | ≤ 500 nM
